Experimental data from patent US6087119A, “Method for determining the catalytic activity of factor IXa” (Roche Diagnostics GmbH, priority 1996, dated 2000).
“And” between values parts separate entries of the source, which are not always exact repeats. Equal values may be shown once. Read-outs that look alike come from different tables or passages of the source.

How the values were obtained:
[1] = biological target: FXIa (human) (Homo sapiens, UniProt P03951); conditions: FXIa 0.0012 μmol/l, MeSO2-D-HHT-Gly-Arg-pNA 1.02 mmol/l, pH 7.4
FXIa (human), sequence (P03951 388-625 limits assumed): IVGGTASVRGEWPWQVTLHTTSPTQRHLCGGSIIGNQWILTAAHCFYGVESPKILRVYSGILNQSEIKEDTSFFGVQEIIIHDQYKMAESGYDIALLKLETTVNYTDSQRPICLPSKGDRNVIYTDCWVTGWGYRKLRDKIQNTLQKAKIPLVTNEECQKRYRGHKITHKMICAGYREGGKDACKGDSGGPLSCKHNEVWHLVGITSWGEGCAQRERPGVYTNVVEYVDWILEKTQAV
FXIa (human), sequence (P03951 19-387 partner limits assumed): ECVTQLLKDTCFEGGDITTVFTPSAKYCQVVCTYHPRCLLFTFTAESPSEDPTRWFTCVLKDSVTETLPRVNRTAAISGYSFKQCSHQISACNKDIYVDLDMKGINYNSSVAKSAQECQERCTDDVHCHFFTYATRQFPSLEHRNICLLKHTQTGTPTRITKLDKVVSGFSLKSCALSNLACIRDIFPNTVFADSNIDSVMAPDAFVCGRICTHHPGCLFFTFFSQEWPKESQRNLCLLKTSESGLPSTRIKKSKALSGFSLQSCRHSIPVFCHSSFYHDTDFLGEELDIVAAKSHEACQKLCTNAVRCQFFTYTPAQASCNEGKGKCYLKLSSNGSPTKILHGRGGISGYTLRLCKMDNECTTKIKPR
From the text: FXIa Test Mixture (Concentration in the Test)
(§1) 42 mmol/l Tris-HCl, pH 7.4
(§2) 1.02 mmol/l MeSO2 -D-HHT-Gly-Arg-pNA
0.0012 μmol/l FXIa (human)
(§3) 0-50% ethanol or ethylene glycol

[2] = biological target: T1, rFIXa (human) (Homo sapiens, UniProt P00740); experiment: Influence of alcohols and organic solvents on the activity of rFIXa, chromogenic peptide substrates; type: biochemical; set-up: coding for the FIX protease domain from amino acid position 181 to 415; Met (ATG start codon) (N); made in house; conditions: for V/V0: pH 7.4
Method: The reaction was started by adding FIXa.
MeSO2 -D-HHT-Gly-Arg-pNA→MeSO2 -D-HHT-Gly-Arg+pNA measurement signal: pNA
0.48 μmol/l rFIXa (human)
0-50% (alcohol or organic solvent)
The ratio V/V0 was calculated to illustrate the stimulation of the catalytic activity of rFIXa.
V0, reaction rate without additives
V, reaction rate in the presence of additives
Test Mixture Chromogenic (Concentration in the Test)
Target sequence in this assay (P00740 227-461 limits assumed): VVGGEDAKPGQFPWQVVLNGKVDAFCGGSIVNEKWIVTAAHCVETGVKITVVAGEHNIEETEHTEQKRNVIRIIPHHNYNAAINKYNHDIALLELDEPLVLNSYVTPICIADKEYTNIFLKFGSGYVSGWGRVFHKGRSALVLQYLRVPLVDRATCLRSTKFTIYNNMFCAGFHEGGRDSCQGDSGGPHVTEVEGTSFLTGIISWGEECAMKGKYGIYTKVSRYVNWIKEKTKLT
Target sequence in this assay (P00740 131-226 partner limits assumed): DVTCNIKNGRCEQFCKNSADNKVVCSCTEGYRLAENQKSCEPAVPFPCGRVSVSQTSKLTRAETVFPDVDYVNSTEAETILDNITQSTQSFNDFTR

[3] = biological target: native FIXa (human) (Homo sapiens, UniProt P00740); conditions: pH 7.4; for V/V0: MeSO2-D-HHT-Gly-Arg-pNA 1.02 mmol/l, 0.14 μmol/l native FIXa
native FIXa (human), sequence (P00740 227-461 limits assumed): as the sequence (P00740 227-461 limits assumed) above
native FIXa (human), sequence (P00740 47-191 partner limits assumed): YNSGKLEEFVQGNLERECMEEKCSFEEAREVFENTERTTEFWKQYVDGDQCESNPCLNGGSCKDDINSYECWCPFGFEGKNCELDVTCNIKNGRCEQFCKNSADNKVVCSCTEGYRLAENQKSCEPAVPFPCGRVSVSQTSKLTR
Method: The FIXa test was carried out with recombinantly produced native human FIXa as a sample and the peptide substrate MeSO2 -D-HHT-Gly-Arg-pNA (Pefachrom tPA, Pentapharm Ltd., Basel, Switzerland) or other chromogenic/fluorogenic substrates of the R-D-Xxx-Gly-Arg-pNA type (EP-B 0 034 122) in Tris-HCl buffer and the substances to be tested (alcohol, solvents and inhibitors). The reaction was started by adding FIXa.
The test mixture was incubated at room temperature (25° C.) in a microtitre plate and the change in absorbance (ΔA/min) was measured at 405 nm using an ELISA reader. The activity and the kinetic constants were determined from the linear initial slope according to the Michaelis-Menten equation.
as §2
0.14 μmol/l native FIXa (human)
as §3
FIXa Test Mixture (Concentration in the Test)

[4] = biological target: thrombin (bovine) (Bos taurus, UniProt P00735); conditions: thrombin 0.045 μmol/l, MeSO2-D-HHT-Gly-Arg-pNA 1.02 mmol/l, pH 7.4
From the text: Thrombin Test Mixture (Concentration in the Test)
as §1, §2
0.045 μmol/l thrombin (bovine)
as §3

[5] = biological target: FXa (bovine) (Bos taurus, UniProt P00743); conditions: FXa 0.088 μmol/l, MeSO2-D-HHT-Gly-Arg-pNA 1.02 mmol/l, pH 7.4
FXa (bovine), sequence (P00743 234-492 limits assumed): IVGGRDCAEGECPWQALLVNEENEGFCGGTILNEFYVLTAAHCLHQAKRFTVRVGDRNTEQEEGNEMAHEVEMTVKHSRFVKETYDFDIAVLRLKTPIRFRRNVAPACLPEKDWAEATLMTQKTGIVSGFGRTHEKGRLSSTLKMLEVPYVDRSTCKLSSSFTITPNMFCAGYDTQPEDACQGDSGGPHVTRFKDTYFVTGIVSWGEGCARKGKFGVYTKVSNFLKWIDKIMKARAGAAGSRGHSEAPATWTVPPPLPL
FXa (bovine), sequence (P00743 41-180 partner limits assumed): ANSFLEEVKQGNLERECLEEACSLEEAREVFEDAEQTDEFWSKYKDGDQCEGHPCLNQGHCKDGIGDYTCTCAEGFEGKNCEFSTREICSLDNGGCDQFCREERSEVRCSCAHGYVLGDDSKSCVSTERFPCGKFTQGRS
From the text: FXa Test Mixture (concentration in the Test)
as §1, §2
0.088 μmol/l FXa (bovine)
as §3

[6] = biological target: plasma kallikrein (human) (Homo sapiens, UniProt P03952); conditions: 10-20% ethanol
plasma kallikrein (human), sequence (P03952 391-638 limits assumed): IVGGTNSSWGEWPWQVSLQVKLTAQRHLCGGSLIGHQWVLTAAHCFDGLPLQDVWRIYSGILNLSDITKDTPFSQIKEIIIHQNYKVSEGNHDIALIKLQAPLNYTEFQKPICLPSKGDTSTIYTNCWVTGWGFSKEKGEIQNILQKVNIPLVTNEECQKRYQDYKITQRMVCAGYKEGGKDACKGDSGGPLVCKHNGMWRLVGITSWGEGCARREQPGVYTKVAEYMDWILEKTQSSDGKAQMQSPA
plasma kallikrein (human), sequence (P03952 20-390 partner limits assumed): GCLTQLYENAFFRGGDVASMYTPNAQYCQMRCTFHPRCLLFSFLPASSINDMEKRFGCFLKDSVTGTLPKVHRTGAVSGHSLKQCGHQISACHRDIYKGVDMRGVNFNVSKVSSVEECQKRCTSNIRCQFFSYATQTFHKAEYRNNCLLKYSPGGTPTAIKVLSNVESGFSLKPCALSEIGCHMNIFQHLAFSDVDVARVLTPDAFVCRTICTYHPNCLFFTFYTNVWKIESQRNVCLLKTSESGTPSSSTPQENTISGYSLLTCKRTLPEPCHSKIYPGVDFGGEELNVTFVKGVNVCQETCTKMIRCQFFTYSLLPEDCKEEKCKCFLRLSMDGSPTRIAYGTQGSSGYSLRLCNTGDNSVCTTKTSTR
From the text: Plasma Kallikrein Test Mixture (Concentration in the Test)
as §1, §2
0.0176 U/ml plasma kallikrein (human)
as §3

[7] = biological target: FXIIa (human) (Homo sapiens, UniProt P00748); conditions: FXIIa 0.0045 U/ml, MeSO2-D-HHT-Gly-Arg-pNA 1.02 mmol/l, pH 7.4
FXIIa (human), sequence (P00748 373-615 limits assumed, other chains not shown): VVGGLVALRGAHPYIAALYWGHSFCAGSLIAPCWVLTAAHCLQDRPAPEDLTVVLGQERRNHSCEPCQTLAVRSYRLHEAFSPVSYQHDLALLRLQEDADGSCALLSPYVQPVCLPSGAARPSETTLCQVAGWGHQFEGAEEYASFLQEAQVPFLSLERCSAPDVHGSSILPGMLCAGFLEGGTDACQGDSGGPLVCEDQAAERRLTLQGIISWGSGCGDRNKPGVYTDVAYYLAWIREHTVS
From the text: FXIIa Test Mixture (Concentration in the Test)
as §1, §2
0.0045 U/ml FXIIa (human)
as §3

[8] = biological target: T1, rFIXa (human); conditions: fluorogenic MeSO2-D-CHA-Gly-Arg-AMC 0.51 mmol/l, 0.08 μmol/l rFIXa, pH 7.4
From the text: The stimulation of human rFIXa by ethanol and ethylene glycol was examined using the peptide substrates MeSO2 -D-HHT-Gly-Arg-pNA (Pefachrom tPA, Pentapharm Ltd., Basel, Switzerland), MOC-D-Nle-Gly-Arg-pNA (Chromozym X, Boehringer Mannheim GmbH, Mannheim, Germany, Cat.No. 789763), MeSO2 -D-CHG-Gly-Arg-pNA (Pentapharm Ltd., Basel, Switzerland), MeSO2 -D-CHA-Gly-Arg-pNA (Pentapharm Ltd., Basel, Switzerland) and MeSO2 -D-CHA-Gly-Arg-AMC (Pentapharm Ltd., Basel, Switzerland).
Test Mixture Fluorogenic (Concentration in the Test)
0.51 mmol/l MeSO2 -D-CHA-Gly-Arg-AMC
0.08 μmol/l rFIXa (human)
Target sequence in this assay (P00740 227-461): as the sequence (P00740 227-461 limits assumed) above
Target sequence in this assay (P00740 131-226): as the sequence (P00740 131-226 partner limits assumed) above

CCO [Ethanol]
V/V0 ([1]; 8% alcohol): 1.08 | V/V0 ([1]; 16% alcohol): 0.845 | V/V0 ([1]; 25% alcohol): 0.657 | V/V0 ([1]; 33% alcohol): 0.469 | V/V0 ([1]; 41% alcohol): 0.353 | V/V0 ([1]; 50% alcohol): 0.258 | V/V0 ([2]; 8% additive, MOC-D-Nle-Gly-Arg-pNA 0.82 mmol/l, 0.48 μmol/l rFIXa): 3.63 | V/V0 ([2]; 8% additive, MeSO2-D-CHA-Gly-Arg-pNA 1.02 mmol/l, 0.48 μmol/l rFIXa): 3.30 | V/V0 ([2]; 8% additive, MeSO2-D-CHG-Gly-Arg-pNA 1.02 mmol/l, […] rFIXa): 3.33 | V/V0 ([2]; 8% additive, MeSO2-D-HHT-Gly-Arg-pNA 1.02 mmol/l, 0.48 μmol/l rFIXa): 2.99 | V/V0 ([2]; 16% additive, MOC-D-Nle-Gly-Arg-pNA 0.82 mmol/l, 0.48 μmol/l rFIXa): 7.28 | V/V0 ([2]; 16% additive, MeSO2-D-CHA-Gly-Arg-pNA 1.02 mmol/l, 0.48 μmol/l rFIXa): 5.40 | V/V0 ([2]; 16% additive, MeSO2-D-CHG-Gly-Arg-pNA 1.02 mmol/l, […] rFIXa): 6.02 | V/V0 ([2]; 16% additive, MeSO2-D-HHT-Gly-Arg-pNA 1.02 mmol/l, 0.48 μmol/l rFIXa): 5.52 | V/V0 ([2]; 25% additive, MOC-D-Nle-Gly-Arg-pNA 0.82 mmol/l, 0.48 μmol/l rFIXa): 9.95 | V/V0 ([2]; 25% additive, MeSO2-D-CHA-Gly-Arg-pNA 1.02 mmol/l, 0.48 μmol/l rFIXa): 5.38 | V/V0 ([2]; 25% additive, MeSO2-D-CHG-Gly-Arg-pNA 1.02 mmol/l, […] rFIXa): 6.16 | V/V0 ([2]; 25% additive, MeSO2-D-HHT-Gly-Arg-pNA 1.02 mmol/l, 0.48 μmol/l rFIXa): 5.57 | V/V0 ([2]; 33% additive, MOC-D-Nle-Gly-Arg-pNA 0.82 mmol/l, 0.48 μmol/l rFIXa): 7.51 | V/V0 ([2]; 33% additive, MeSO2-D-CHA-Gly-Arg-pNA 1.02 mmol/l, 0.48 μmol/l rFIXa): 4.30 | V/V0 ([2]; 33% additive, MeSO2-D-CHG-Gly-Arg-pNA 1.02 mmol/l, […] rFIXa): 4.50 | V/V0 ([2]; 33% additive, MeSO2-D-HHT-Gly-Arg-pNA 1.02 mmol/l, 0.48 μmol/l rFIXa): 3.35 | V/V0 ([2]; 41% additive, MOC-D-Nle-Gly-Arg-pNA 0.82 mmol/l, 0.48 μmol/l rFIXa): 3.15 | V/V0 ([2]; 50% additive, MeSO2-D-CHA-Gly-Arg-pNA 1.02 mmol/l, 0.48 μmol/l rFIXa): 0.89 | V/V0 ([2]; 50% additive, MeSO2-D-CHG-Gly-Arg-pNA 1.02 mmol/l, […] rFIXa): 0.87 | V/V0 ([2]; 50% additive, MeSO2-D-HHT-Gly-Arg-pNA 1.02 mmol/l, 0.48 μmol/l rFIXa): 0.606 | V/V0 ([2]; 50% additive, MeSO2-D-HHT-Gly-Arg-pNA 1.02 mmol/l, 0.48 μmol/l rFIXa, listed as ethanol): 0.61 and 0.60 | stimulation of the activity of rFIXa ([2]; concentration range of 15-40%): 5-15 fold | activation among plasma kallikrein, FXIIa, FXIa, FIXa, FXa and thrombin (in words) ([3]; 0-50% alcohol, MeSO2-D-HHT-Gly-Arg-pNA): only FIXa is activated | V/V0 ([3]; 8% additive): 3.40 | V/V0 ([3]; 16% additive): 5.46 | V/V0 ([3]; 25% additive): 5.96 | V/V0 ([3]; 33% additive): 4.82 | V/V0 ([3]; 41% additive): 1.69 | V/V0 ([3]; 50% additive): 1.17 | V/V0 ([4]; 8% alcohol): 0.846 | V/V0 ([4]; 16% alcohol): 0.685 | V/V0 ([4]; 25% alcohol): 0.507 | V/V0 ([4]; 33% alcohol): 0.343 | V/V0 ([4]; 41% alcohol): 0.184 | V/V0 ([4]; 50% alcohol): 0.087 | V/V0 ([5]; 8% alcohol): 0.899 | V/V0 ([5]; 16% alcohol): 0.752 | V/V0 ([5]; 25% alcohol): 0.510 | V/V0 ([5]; 41% alcohol): 0.203 | V/V0 ([5]; 50% alcohol): 0.086 | activation of plasma kallikrein (in words) [6]: slight activation | V/V0 ([7]; 8% alcohol): 0.904 | V/V0 ([7]; 16% alcohol): 0.579 | V/V0 ([7]; 25% alcohol): 0.187 | V/V0 ([7]; 33% alcohol): 0.051 | V/V0 ([7]; 41% alcohol): 0.009 | V/V0 ([7]; 50% alcohol): 0 | V/V0 ([8]; 8% additive): 2.09 | V/V0 ([8]; 16% additive): 2.50 | V/V0 ([8]; 33% additive): 1.01 | V/V0 ([8]; 41% additive): 0.70 | V/V0 ([8]; 50% additive): 0.58
